This is an account of results in the supplement of paper PMC6723410.

The test system of the test is GUMC-403. Briefly: viability at highest tested concentration (max response) relative to DMSO (% of DMSO control); higher = less cytotoxic. To be noted: library / dose series: MIPE library, 11-point 1:3 dilution; top concentration 46.1 µM; 48 h. The method in brief: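 Patient-derived GUMC-403 papilloma cells grown by conditional reprogramming were plated at 700/well in 5 μL F + Y medium in 1536-well plates and incubated overnight at 37 °C. They then received 23 nL of MIPE 4.0 compounds by pin tool (11-point 1:3 series) for 48 h. CellTiter-Glo luminescence was read on a ViewLux and normalised with DMSO wells as 100% and empty wells as 0%. The value is viability at the highest tested concentration relative to DMSO control.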
Take `CO/N=C(\C(=O)N[C@@H]1C(=O)N2C(C(=O)OCOC(=O)C(C)(C)C)=C(/C=C\c3scnc3C)CS[C@H]12)c1csc(N)n1`: the viability was determined as 137.
In turn, `COc1ccc2[nH]c([S+]([O-])Cc3ncc(C)c(OC)c3C)nc2c1` (stereo not given) returned a viability of 88.8.
In the case of `Nc1nc(-c2nn(Cc3ccccc3F)c3ncccc23)nc(N)c1N1CCOCC1` it was 111.
Compound `CN1\C(=C(O)/C2=C(C=C(Cl)S2)[S+]1([O-])=O)C(=O)NC3=NC=CC=C3` yielded a viability of 67.8.
The figure for `CN1[C@@H]2CC(O)C[C@H]1[C@@H]1O[C@@H]12` (stereo not given in full) is 92.4; for `CN1C(=O)/C(=C(NC2=CC=C(I)C=C2F)\C3=C1\N=C/N(C[C@@H](O)CO)C3=O)F` it is 28.9.
The figure for `COC1=CC=CC2=C1C(=NC(=N2)C3=CC=CS3)NN4C(=O)\C=C(C)/C4=O` is 80; for `CN(C)/[N+]([O-])=N/Oc1cc(ON[N+](=O)N2CCN(C(=O)c3cc(Cc4n[nH]c(=O)c5ccccc45)ccc3F)CC2)c([N+](=O)[O-])cc1[N+](=O)[O-]` it is 108; for `COc1cc2ncnc(Nc3cccc(Br)c3)c2cc1OC` it is 81.6.
As for `COc1ccc(-c2nc3cc(C4=NNC(=O)CC4C)ccc3[nH]2)cc1` (stereo not given), the viability stood at 119.
In the case of `CC(/C=C1\SC(=S)N(CC(=O)O)C1=O)=C\c1ccccc1`, the viability is 132.
In the case of `Cc1cccc2c1CC[C@H](CN1CCC(c3c(Cl)cccc3Cl)CC1)C[C@@H]2O` it was 89.
The figure for `C[C@@H]1C[C@@H]([C@H](O)CC2CC(=O)NC(=O)C2)C(=O)[C@@H](C)C1` is 89.5.
As to `COC(=O)\C1=C\CCN(C)C1`, the viability is 111.
The figure for `CN[C@@H](C)C(=O)N[C@H]1CCCC[C@H]2CC[C@@H](C(=O)N[C@@H](c3ccccc3)c3cn(CCCCc4ccc(CCCCn5cc([C@@H](NC(=O)[C@@H]6CC[C@@H]7CCCC[C@H](NC(=O)[C@H](C)NC)C(=O)N76)c6ccccc6)nn5)cc4)nn3)N2C1=O` is 110; for `CC(C)[C@@H](N(CCCN)C(=O)C1=CC=C(C)C=C1)C/2=C(\CC3=CC=CC=C3)C(=O)C4=C(O2)C=C(Cl)C=C4` it is 119.
In turn, `CCN(CC)CCCCNc1ncc2c(n1)N(C)C(=O)N(c1c(Cl)c(OC)cc(OC)c1Cl)C2` yielded a viability of 99.8.
Regarding `CC(NC(C)(C)C)C(=O)c1cccc(Cl)c1` (stereo not given), the viability is 127.
The compound `CC1Cc2ccccc2N1NC(=O)c1ccc(Cl)c([S+](N)(=O)[O-])c1` (stereo not given) showed a viability of 105.
The figure for `CCCCCCCCCCCCCCCCCCCCCCO` is 103; for `CN(C)/N=N/c1nc[nH]c1C(N)=O` it is 123.
As to `Cl.Cl.Clc1ccc(Nc2nnc(Cc3ccncc3)c3ccccc23)cc1`, the viability was found to be 101.
With `CC(C)C[C@H](CC(=O)O)C(=O)N[C@@H](Cc1c[nH]c2ccccc12)C(=O)N[C@@H](C)c1ccccc1`, the viability amounted to 108.
The figure for `Cc1cc(OCCCc2c(C(=O)O)n(Cc3cccnc3)c3c(-c4c(COc5ccc(N6CCN([S+](C)(=O)[O-])CC6)cc5)nn(C)c4C)cccc23)cc(C)c1Cl` is 105; for `CCOC\1=C(/C(=O)NC2=CC=C(OC3=C(Cl)C(=NC=C3)N)C(=C2)F)C(=O)N(\C=C1)C4=CC=C(F)C=C4` it is 77.8.
The figure for `C[C@H]1COC2=C3N1\C=C(C(O)=O)/C(=O)C3=CC(=C2N4CCN(C)CC4)F` is 105; for `Nc1ncnc2c1c(-c1cccc(OCc3ccccc3)c1)cn2C1CC(CN2CCCC2)C1` (stereo not given) it is 78.1.
Turning to `C#Cc1cccc(Nc2ncnc3cc(OC)c(OCCCCCCC(=O)NO)cc23)c1`, the viability came out at 33.9.
In the case of `C#Cc1cccc(Nc2ncnc3cc(OCCOC)c(OCCO)cc23)c1` it was 47.5.
In turn, `COc1cc2nccc(Oc3ccc(NC(=O)C4(C(=O)Nc5ccc(F)cc5)CC4)cc3)c2cc1OC` gave a viability of 63.3.
Compound `O=C(O)CCc1ccc(NCc2cccc(Oc3ccccc3)c2)cc1` returned a viability of 122.
In the case of `Nc1nc(N)nc(-c2cc(Cl)ccc2Cl)n1.O=C(O)/C=C\C(=O)O` it was 112.
In the case of `CC(C[N+](C)(C)C)OC(N)=O` (stereo not given) it was 101.
In the case of `COC1=C(CC=C(C)C)C2=C(\C=C/C(=O)O2)C=C1` it was 92.
`CCn1c(C(=O)N(C2CC2)C2CC2)cc2c3c(ncn3C)c(Nc3cc(C)n(C)n3)nc21` yielded a viability of 118.
Compound `O=C(Nc1ncc(-c2cc(C(F)F)nn2-c2c(Cl)cccc2Cl)s1)C1CC1` displayed a viability of 84.9.
With `NC(=O)c1nnn(Cc2cc(Cl)c(C(=O)c3ccc(Cl)cc3)c(Cl)c2)c1N`, the viability stood at 90.7.
In the case of `COc1cc2c(cc1-c1c(C)noc1C)ncc1[nH]c(=O)n([C@H](C)c3ccccn3)c12` it was 69.1.
In the case of `CC[C@@H](C)[C@H](NC(=O)[C@H](CC1CCCCC1)NC(=O)c1ccno1)C(=O)N1CCC2(CCc3ccccc32)CC1` it was 90.5; in that of `CC(C)OC(=O)C(C(=O)OC(C)C)=C1S\C=C/S1`, 104.
In the case of `COCCCN1CCC(NC(=O)c2cc(Cl)c(N)c3c2OCC3)CC1` it was 76.9; in that of `COC(c1ccccc1)(c1ccccc1)[C@H](Oc1nc(C)cc(C)n1)C(=O)O`, 136; in that of `C\C1=C\C(=O)C2=C(C=CC=C2)C1=O`, 109.
Take `Cc1cc(Nc2nc(N[C@@H](C)c3ncc(F)cn3)ncc2Cl)n[nH]1`: the viability came out at 163.
In the case of `CO[C@H]1/C=C/O[C@@]2(C)Oc3c(C)c(O)c4c(c3C2=O)C2=NC3(CCN(CC(C)C)CC3)NC2=C(NC(=O)/C(C)=C\C=C\[C@H](C)[C@H](O)[C@@H](C)[C@@H](O)[C@@H](C)[C@H](OC(C)=O)[C@@H]1C)C4=O` it was 118.
The figure for `CC(C)(C)C(=O)OCOP(=O)(COCCn1cnc2c(N)ncnc21)OCOC(=O)C(C)(C)C` is 93; for `OC(=O)C1=CC=C(NC2=NC3=C(C\N=C(/C4=CC(=CC=C34)Cl)C5=C(F)C=CC=C5F)C=N2)C=C1` it is 131; for `CC[C@@H](C(N)=O)N1CCCC1=O` it is 6.2.
The figure for `CC(C)C[C@H](NC(=O)c1cc2ccccc2s1)C(=O)N1CCN(C(=O)[C@H](CO)N[S+](=O)([O-])c2ccc(Cl)cc2Cl)CC1` is 109; for `CN[C@@H](C)C(=O)N[C@H]1CN(C(=O)CC(C)C)CC[C@H]2CC[C@@H](C(=O)NC(c3ccccc3)c3ccccc3)N2C1=O` it is 73.1.
Regarding `N[C@H]2CN(CC12CC1)c3c(F)cc4c(c3Cl)[N@@](C=C(C4=O)C(=O)O)C5C[C@H]5F` (stereo not given in full), the viability was found to be 103.
As to `O=C1N\2CCC3=C([NH]C4=C3C=CC=C4)C2=N/C5=CC=CC=C15`, the viability came to 109.
As for `COC[C@@H](NC(C)=O)C(=O)NCc1ccccc1`, the viability turned out to be 133.
The figure for `CNC(=O)c1ccc2c(c1)NC(=O)/C2=C(\Nc1cccc(CN(C)C)c1)c1ccccc1` is 107; for `C=C1C[C@@]2(O)O[C@@]3(C[C@H]2C(C)C)[C@@H](C)CC[C@@H]13` it is 127.
